Broadly, the Ki is the equilibrium dissociation constant of an inhibitor or competing ligand from its target. A low value points to tighter binding.

SMILES strings stand for the structures.

In ChEMBL document CHEMBL3091278 (Bioorg Med Chem Lett, 2013) one finds Ki data, which are given here for 27 molecules.

The assay is described as follows: Inhibition of Clostridium perfringens carbonic anhydrase preincubated for 15 mins by stopped flow CO2 hydration assay.
`CC(=O)Nc1nnc(S(N)(=O)=O)s1` [ACETAZOLAMIDE] showed a Ki of 4.9e-05 mM.

`CCN(CC)C(=S)S` [DITIOCARB SODIUM] yielded a Ki of 0.36 mM.

The molecule `O=[As](O)(O)c1ccccc1` [PHENYLARSONIC ACID] displayed a Ki of 0.007 mM.

In turn, `OB(O)c1ccccc1` [PHENYLBORONIC ACID] came in with a Ki of 0.075 mM.

Molecule `[N-]=[N+]=[N-]` [SODIUM AZIDE] displayed a Ki of 4.2 mM.

Molecule `O=C([O-])O.[Na+]` [SODIUM BICARBONATE] gave a Ki of 2.1 mM.

`O=S([O-])O.[Na+]` [SODIUM BISULFITE] came in with a Ki of 4.9 mM.

Molecule `[Br-].[Na+]` [SODIUM BROMIDE] registered a Ki of 21.5 mM.

`O=C([O-])[O-].[Na+].[Na+]` [SODIUM CARBONATE] showed an inhibitory constant (Ki) of 0.65 mM.

`S=C(S)S` [SODIUM CARBONOTRITHIOATE] displayed a Ki of 1 mM.

`[Cl-].[Na+]` [SODIUM CHLORIDE] came in with an inhibition constant (Ki) of 4.3 mM.

The molecule `[F-].[Na+]` [SODIUM FLUORIDE] gave an inhibitory constant (Ki) of 4.8 mM.

As to `S` [SODIUM HYDROSULFIDE], the affinity corresponds to a Ki of 4 mM.

In turn, `O=S(=O)(O)ONOS(=O)(=O)O` [SODIUM IMINODISULFATE] gave a Ki of 4.9 mM.

`[I-].[Na+]` [SODIUM IODIDE] displayed a Ki of 63.4 mM.

Take `N=C=S` [SODIUM ISOTHIOCYANATE]: affinity was put at a Ki of 0.83 mM.

With `O=[N+]([O-])[O-].[Na+]` [SODIUM NITRATE], the Ki is 4.6 mM.

In turn, `O=NO` [SODIUM NITRITE] registered a Ki of 4.1 mM.

In turn, `[O-][Cl+3]([O-])([O-])O` [SODIUM PERCHLORATE] yielded a Ki of over 200 mM.

On to `O=S(=O)(O)OOS(=O)(=O)O` [SODIUM PERSULFATE], for which the Ki came to 9.2 mM.

The molecule `O=P(O)(O)OP(=O)(O)O` [SODIUM PYROPHOSPHATE] registered a Ki of 2.7 mM.

For `O=[Se](=O)(O)O` [SODIUM SELENATE], affinity was put at a Ki of 0.47 mM.

Take `O=S(=O)([O-])[O-].[Na+].[Na+]` [SODIUM SULFATE ANHYDROUS]: the Ki turned out to be 7.9 mM.

`O=[Te](=O)(O)O` [SODIUM TELLURATE] registered an inhibitory constant (Ki) of 3.3 mM.

`O=BOB(O)OB(O)OB=O` [SODIUM TETRABORATE] registered an inhibition constant (Ki) of 2.5 mM.

With `F[B-](F)(F)F.[Na+]` [SODIUM TETRAFLUOROBORATE], the Ki was over 200 mM.

As for `NS(=O)(=O)O` [SULFAMATE], the Ki amounted to 0.009 mM.
